Results reported in patent US20080286335A1, “Enhancement Of The Calcium Sensing Receptor” (Smith & Nephew, Inc., priority 2007, published 2008).

What was measured:
mouse calvarial cells [1] = test: Alizarin red staining (calcium deposition) of mouse calvarial cell monolayers; type: cell-based; details: 2.5 mM amino acid with 2.5 mM CaCl2, 2 week period, compared to 2.5 mM CaCl2 alone, FIG. 1 and 2
Description: (§1) Osteoblastic cells were isolated from mouse calvarial tissue dissected from the heads of 2-3 day old freshly slaughtered mice pups using sequential enzymatic digestion. Cells were maintained in DMEM+10% Foetal Bovine Serum (FBS) at 37° C./5% CO2 in order to expand the cells before experimental use. Human dermal fibroblasts (HDFs) were used in experiments as an additional negative control.
(§2) Cells were seeded into 24 well plates at a concentration of 5×10^4 cells/well in αMEM+10% FBS (n=6). Experiments were set up to examine the amount of mineralisation at two different concentrations of calcium chloride (CaCl2) (1.8 mM and 2.5 mM) with and without L-amino acids (L-phenylalanine and L-tryptophan at 2.5 mM). Cells were cultured at 37° C./5% CO2 with media changes three times a week. After 2 weeks and 3 weeks, the monolayers were stained to show the extent of mineralisation using Alizarin red (calcium deposition) and after 4 weeks with Von Kossa (mineralised matrix). Alizarin red stained monolayers were destained and the stain quantified spectophotometrically, whilst the Von Kossa staining was quantified using image analysis.

mouse calvarial cells [2] = test: Von Kossa staining (mineralised matrix) of mouse calvarial cell monolayers; type: cell-based; details: compared to 2.5 mM CaCl2 alone
Description: as §1
as §2, with “After 2 weeks and 3 weeks, the monolayers were stained to show the extent of mineralisation using Alizarin red (calcium deposition) and after 4 weeks with Von Kossa (mineralised matrix).” left out

Row | SMILES | calcium deposition (mouse calvarial cells [1]) | amount of mineralised matrix (mouse calvarial cells [2]; 2.5 mM L-Phe with 2.5 mM CaCl2, 2 week period, Von Kossa image analysis, FIG. 4) | amount of mineralised matrix (mouse calvarial cells [2]; 2.5 mM L-Phe with 2.5 mM CaCl2, 4 week period, Von Kossa staining, FIG. 3)
1 | N[C@@H](Cc1ccccc1)C(=O)O [L-Phe, L-phenylalanine] | significantly increases | significantly increases | significantly increases
2 | N[C@@H](Cc1c[nH]c2ccccc12)C(=O)O [L-Trp, L-tryptophan] | significantly increases |  | 
